Read-outs that look alike come from different tables or passages of the source. One block for each molecule: values may come before it.
Legend:
[1] = cited from earlier work
[2] = cited from earlier work; remark: listed apart in the source
[3] = cited from earlier work; remark: listed apart in the source
[4] = Non-clinical drug–drug interaction / oral pharmacokinetic study in Sprague–Dawley rats; type: in vivo, rat; conditions: for AUC(0-inf) / CL/F / Cmax / Tmax / half-life: male, Sprague-Dawley, plasma
Experimental: Male Sprague–Dawley (SD) rats, 7 weeks old (180–210 g), were purchased from Hana Biotech (Pyeongtaek, Republic of Korea). The rats were kept in a room with a relative humidity of 50–60%, a temperature of 21 ± 2 °C, and a 12 h light/dark cycle and were acclimatized to these conditions for a week. The protocol for these experiments was approved by Inje University’s Animal Care Committee (Inje 2022-012, Gimhae, Republic of Korea).
The drug was orally administered via a feeding tube, employing a total dosing volume of 5 mL/kg across all groups. Blood samples (approximately 200 μL) were collected from the jugular vein at 0.25, 0.5, 1, 2, 3, 4, 6, 8, 12, and 24 h post-dose. […] The blood samples were promptly centrifuged at 15,000 rpm for 5 min at 4 °C. The resulting plasma was stored at -70 °C until HPLC or LC-MS/MS analysis.
The calculated pharmacokinetic parameters included the following: area under the time–plasma concentration curve (AUC) between from0 to infinity (AUCinf); maximum plasma concentration (Cmax); time to reach maximum concentration (Tmax); terminal half-life (t1/2); oral clearance (CL/F). Pharmacokinetic parameters are expressed as the mean ± standard deviation (SD). For statistical analysis, a Student’s t-test was performed using GraphPad Prism software (San Diego, CA, USA) with a significance threshold of less than 0.05.
The LC-MS/MS system consisted of an Agilent 6490 triple quadrupole mass spectroscopy system and a 1290 infinity HPLC system (Agilent Technologies, Santa Clara, CA, USA). The separation of compounds was accomplished by a reversed-phase column (Synergi Polar-RP 80 Å, 150 × 2.0 mm, 4 μm, Phenomenex, Torrance, CA, USA) with a security guard. […] Multiple reaction monitoring (MRM) modes were used for the quantitative study of the compound’s precursor ion and product ion transitions. […] In addition, 1′-hydroxy midazolam was analyzed under the following conditions. The mobile phase was a mixture of 0.1% formic acid in water and ACN (50:50 v/v), with a flow rate of 0.2 mL/min. The column temperature was kept constant at 25 °C. The following ion values (m/z) were obtained by monitoring the transitions: 1′-hydroxy midazolam, 342.0 → 203.1; phenacetin (IS), 180.0 → 162.2. The data analysis was achieved using MassHunter software version A.06.00 (Agilent Technologies, Santa Clara, CA, USA).
The HPLC system included a degasser pump (L-2130), a column oven (L-2300), an autosampler (L-2200), and a diode array detector (L-2455). The analysis was carried out using the software Hitachi LaChrom D-2000 Elite (Merck-Hitachi, Tokyo, Japan). The separation was accomplished using a reversed-phase column (Synchronis C18 150 × 4.6 mm, 5 μm, Thermo Scientific, Waltham, MA, USA) with a guard column (security guard C18 4 × 2.0 mm, Phenomenex, Torrance, CA, USA). The mobile phase was comprised of phases A (ACN) and B (0.015 M potassium phosphate monobasic (KH2PO4) with 2.8 mM triethylamine in water). The mobile phase was A:B = 60:40, with a flow rate of 1.5 mL/min. The temperature of the column oven controller was maintained at 40 °C, and 50 μL of sample was injected into the system.

[5] = cited from earlier work; remark: listed apart in the source
[6] = cited from earlier work; remark: listed apart in the source
CYP3A4 = conditions: nicardipine, cited from earlier work
hCYP3A4 = test system: hCYP3A4; design: method as in PMID 22496391; conditions: saxagliptin, cited from earlier work
[7] = target: T1, recombinant rat CYP3A2 (rCYP3A2) (Rattus norvegicus, UniProt P05183); experiment: Saxagliptin metabolic stability with recombinant rat CYP3A2; type: in vitro ADME; conditions: in-house data
T1 construct: purchased Xenotech (Lenexa, KS, USA)
T1 sequence (P05183 1-504): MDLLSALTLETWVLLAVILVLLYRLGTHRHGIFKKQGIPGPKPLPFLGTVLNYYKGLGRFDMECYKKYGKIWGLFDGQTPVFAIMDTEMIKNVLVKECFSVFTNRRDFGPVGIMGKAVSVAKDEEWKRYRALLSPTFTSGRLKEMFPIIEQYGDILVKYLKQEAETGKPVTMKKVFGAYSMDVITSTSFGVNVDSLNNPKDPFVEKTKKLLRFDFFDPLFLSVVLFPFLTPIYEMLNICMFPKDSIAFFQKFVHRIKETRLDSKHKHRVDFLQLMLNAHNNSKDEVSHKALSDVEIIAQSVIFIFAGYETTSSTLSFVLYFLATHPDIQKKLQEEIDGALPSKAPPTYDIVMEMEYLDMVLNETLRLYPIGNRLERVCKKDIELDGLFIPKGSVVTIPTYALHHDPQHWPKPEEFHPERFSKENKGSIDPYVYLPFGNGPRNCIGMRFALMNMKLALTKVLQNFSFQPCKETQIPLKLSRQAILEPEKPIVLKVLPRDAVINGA
Experimental: (§1) After initiating the reaction by adding NADPH solution, the sampling was carried out at 37 °C for 0, 5, 10, 20, and 30 min in triplicate and stopped with methanol containing 200 ng/mL tolbutamide as an internal standard (IS) for HPLC analysis.

CYP3A2 = target: T2, CYP3A2 (Rattus norvegicus, UniProt P05183); experiment: as above; type: in vitro ADME; conditions: rat, recombinant rat CYP3A2, pH 7.4; read-out: half-life after incubation with rCYP3A2 reaction mixture
T2 construct: purchased Xenotech (Lenexa, KS, USA)
T2 sequence (P05183 1-504): T1 sequence (P05183 1-504)
Experimental: as §1

hCYP3A5 = test system: hCYP3A5; design: method as in PMID 22496391; conditions: saxagliptin, cited from earlier work
[8] = saxagliptin, cited from earlier work
[9] = nicardipine, input of rat and human models
[10] = nicardipine, rat and human models
[11] = saxagliptin, rat PBPK model input
[12] = saxagliptin, human PBPK model input

AUC(0-inf) ([4]; rat, po, 15 mg/kg, AUCinf of nicardipine, 15 mg/kg alone, mean ± SD): 408 ± 121 ng·h/mL
Cmax ([4]; rat, po, 15 mg/kg, Cmax of nicardipine, 15 mg/kg alone, mean ± SD): 132 ± 35.3 ng/mL
Tmax ([4]; rat, po, 15 mg/kg, Tmax of nicardipine, 15 mg/kg alone, mean ± SD): 0.357 ± 0.134 h
half-life ([4]; rat, po, 15 mg/kg, t1/2 of nicardipine, 15 mg/kg alone, mean ± SD): 5.76 ± 1.45 h
SMILES: COC(=O)C1=C(C)NC(C)=C(C(=O)OCCN(C)Cc2ccccc2)C1c1cccc([N+](=O)[O-])c1 (centres unmarked) [nicardipine]
pKa (compound type), input value ([1]; nicardipine, base, input of rat and human models): 8.1 (base)
pKa (compound type), reference value ([1]; nicardipine, base, rat and human models): 8.1 (base)
Lipophilicity, input value [1, 9]: 4.6 logD7.4
Solubility (ref-pH), input value ([1]; nicardipine, pH 7, input of rat and human models): 7.9 (pH 7) mg/mL
Solubility (ref-pH), reference value ([1]; nicardipine, pH 7, rat and human models): 7.9 (pH 7) mg/mL
Lipophilicity, reference value [1, 10]: 4.6 logD7.4
Fraction unbound, rat, input value ([2]; nicardipine, rat PBPK model input): 0.084
Fraction unbound, rat, reference value ([2]; nicardipine, rat plasma): 0.084
AUCinf observed ([3]; nicardipine, human po 40 mg): 163 ng·h/mL
Cmax observed ([3]; nicardipine, human po 40 mg): 58.8 ng/mL

CLint rCYP3A2, reference ([7]; saxagliptin 5 μM, 10 pmol CYP/mL, 1 mM NADPH, 37 °C): 1.99 μL/min/pmol CYP
CLint rCYP3A2, input [7, 11]: 1.99 μL/min/pmol CYP
half-life at 5 μM (CYP3A2): 0.58 h
AUC(0-inf) ([4]; rat, po, 5 mg/kg, AUCinf of saxagliptin, alone, SXG 5 mg/kg alone, mean ± SD): 156 ± 22.9 ng·h/mL
AUC(0-inf) ([4]; rat, po, 5 mg/kg, AUCinf of saxagliptin, co-administered with nicardipine, rat, po, SXG 5 mg/kg + NCD 15 mg/kg, mean ± SD): 408 ± 213 ng·h/mL
CL/F ([4]; rat, po, 5 mg/kg, CL/F of saxagliptin, alone, SXG 5 mg/kg alone, mean ± SD): 542 mL/min/kg
CL/F ([4]; rat, po, 5 mg/kg, CL/F of saxagliptin, co-administered with nicardipine, rat, po, SXG 5 mg/kg + NCD 15 mg/kg, mean ± SD): 238 mL/min/kg
Cmax ([4]; rat, po, 5 mg/kg, Cmax of saxagliptin, alone, SXG 5 mg/kg alone, mean ± SD): 98.5 ± 15.1 ng/mL
Cmax ([4]; rat, po, 5 mg/kg, Cmax of saxagliptin, co-administered with nicardipine, rat, po, SXG 5 mg/kg + NCD 15 mg/kg, mean ± SD): 281 ± 147 ng/mL
Tmax ([4]; rat, po, 5 mg/kg, Tmax of saxagliptin, alone, SXG 5 mg/kg alone, mean ± SD): 0.417 ± 0.129 h
Tmax ([4]; rat, po, 5 mg/kg, Tmax of saxagliptin, co-administered with nicardipine, rat, po, SXG 5 mg/kg + NCD 15 mg/kg, mean ± SD): 0.464 ± 0.094 h
half-life ([4]; rat, po, 5 mg/kg, t1/2 of saxagliptin, alone, SXG 5 mg/kg alone, mean ± SD): 1.82 ± 0.737 h
half-life ([4]; rat, po, 5 mg/kg, t1/2 of saxagliptin, co-administered with nicardipine, rat, po, SXG 5 mg/kg + NCD 15 mg/kg, mean ± SD): 2.97 ± 1.23 h
Cmax ([4]; rat, po, Cmax of saxagliptin, co-administered with nicardipine, rat, po, SXG 5 mg/kg + NCD 15 mg/kg, mean ± SD): 280 ± 147 ng/mL
AUCinf of saxagliptin, alone ([4]; rat, po, SXG 5 mg/kg alone, mean ± SD, listed as SXG): 157 ± 23.1 ng·h/mL
increase of plasma concentration of saxagliptin in vivo ([4]; rats, co-administration with nicardipine): more than 2 fold
SMILES: N#C[C@@H]1C[C@@H]2C[C@@H]2N1C(=O)[C@@H](N)C12CC3CC(CC(O)(C3)C1)C2 [saxagliptin]
CLint hCYP3A4, input (hCYP3A4; human PBPK model input): 0.38 μL/min/pmol CYP
CLint hCYP3A4, reference (hCYP3A4; human): 0.38 μL/min/pmol CYP
pKa (compound type), input ([1]; saxagliptin, base, input of rat and human models): 7.9 (base)
pKa (compound type), reference ([1]; saxagliptin, base, rat and human models): 7.9 (base)
Solubility (ref-pH), input ([1]; saxagliptin, pH 7, input of rat and human models): 17.6 (pH 7) mg/mL
Solubility (ref-pH), reference ([1]; saxagliptin, pH 7, rat and human models): 17.6 (pH 7) mg/mL
Lipophilicity, reference ([1]; saxagliptin, reference value for rat and human PBPK models): −0.35 logD7.4
Fraction unbound, rat, input [2, 11]: 0.82
Fraction unbound, rat, reference ([2]; saxagliptin, rat): 0.82
AUCinf observed ([3]; saxagliptin, human po 2.5 mg): 49.1 ng·h/mL
Cmax observed ([3]; saxagliptin, human po 2.5 mg): 7.89 ng/mL
t1/2 observed ([3]; saxagliptin, human po 2.5 mg): 7.21 h
Renal clearance, human, input [3, 12]: 1.9 mL/min/kg
Renal clearance, human, reference ([3]; saxagliptin, human): 1.9 mL/min/kg
CLint hCYP3A5, input (hCYP3A5; human PBPK model input): 0.09 μL/min/pmol CYP
CLint hCYP3A5, reference (hCYP3A5; human): 0.09 μL/min/pmol CYP
Specific intestinal permeability, reference ([5]; saxagliptin, rat and human models): 2.73 10^−6 cm/s
Fraction unbound, human, input [6, 12]: 1
Fraction unbound, human, reference ([6]; saxagliptin, human): 1
Renal clearance, rat, input ([8]; rat PBPK model input): 38 mL/min/kg
Renal clearance, rat, reference ([8]; rat): 38 mL/min/kg
